{
  "source": "patent US20130195926A1",
  "about": "“MODULATION OF NITRIC OXIDE SIGNALING TO NORMALIZE TUMOR VASCULATURE” (The General Hospital Corporation, priority 2007, published 2013)",
  "key": {"U87MG tumors": {"test_system": "U87MG tumors", "assay": "Vessel morphology of U87 tumors in the cranial window by intravital microscopy", "format": "in vivo, mice", "settings": "L-NMMA 7 mg/day by osmotic pump vs D-NMMA, SCID mice", "protocol": "(§1) Recombination activating gene 1 (Rag-1^−/−) mice backcrossed to C57BL/6 background or severe combined immunodeficiency (SCID) mice, bred and maintained in an gnotobiotic animal facility, were used. To obtain source tumor tissue, U87 tumor cells in culture (1×10^6 cells) were injected subcutaneously into Rag-1^−/− or SCID mice matching the recipient mice. When the tumor reached about 8 mm in diameter, it was excised after euthanasia and a small piece (about 1 mm^3) of viable tumor tissue was implanted into a cranial window or subcutaneously into the calf area of the right hindlegs of the mice as previously described (Kashiwagi, S., et al. 2005 J. Clin. Invest. 115, 1816-1827; Kozin, S. V., et al. 2001 Cancer Research 61, 39-44). All animal procedures were carried oat following the Public Health Service Policy on Humane Care of Laboratory Animals and approved by the Institutional Animal Care and Use Committee of Massachusetts General Hospital. […]\nAngiogenesis and vessel morphology were determined in U87 and GL261 tumors grown in the cranial windows by intravital microscopy using multiphoton laserscanning microscopy (MPLSM) or single photon fluorescence microscopy (SPFM) when tumors reached about 7 mm^2. […] Using MPLSM, five locations with 200-μm thick imaging stack were recorded for each tumor. […]\n(§2) Vascular parameters such as functional vessel density (the total length of perfused microvessels per unit area) and vessel diameter were analyzed by tracing each vessel segment using NIH image 1.63 as described elsewhere (Kashiwagi, S., et al. 2005 J. Clin. Invest. 115, 1816-1827). Tissue distribution of NO was visualized using MPLSM and the NO-sensitive fluorescence probe 4,5-diaminofluorescein (DAF-2) (0.5 mg i.v. Daiichi Pure Chemicals Co. Ltd) as described previously (Kashiwagi, S., et al. 2005 J. Clin. Invest. 115, 1816-1827). NO converts DAF-2 to 4,5-diaminofluorescein triazolium (DAF-2T) increasing fluorescence by a factor of 200. The DAF-2 associated fluorescence images were captured 60 min after i.v. injection. […]"}, "10T1/2 cells": {"test_system": "10T1/2 cells", "assay": "Transwell migration of 10T1/2 cells toward HUVECs", "format": "cell-based", "protocol": "FIGS. 13A-C show the role of the NO-sGC-cGMP pathway in perivascular cell recruitment and migration. (A) In bar graph form, cGMP production in cultured 10T1/2 cells in response to NO donor or PDE5 inhibitor. (B) In bar graph form, the migration of 10T1/2 cells in a transwell assay. 10T1/2 cell migration was assessed using Falcon HTS FluoroBlok inserts with 1 μm pores. GFP-expressing 10T1/2 cells were inoculated in the inserts, and HUVECs were inoculated in the outer well. Percent area of transwell filter covered by migrated 10T1/2 cells was determined. Medium only indicates no HUVECs in the outer well. ODQ, T-1032, Sildenafil, or Sildenafil+L-NMMA were added to the medium. *P<0.05 vs. control (HUVEC). (C) Images for transmigrated GFP-10T1/2 cells at the back side of the Fluoroblock insert after 10 hours with control vs. T-1032 treatment.\nFIGS. 14A-B show the effect of PI3K inhibition on transwell migration of 10T1/2 cells toward HUVECs. 10T1/2 cell migration was assessed using Falcon HTS FluoroBlock inserts with 1 μm pores. GFP-expressing 10T1/2 cells were inoculated in the inserts and human umbilical vein endothelial cells (HUVECs) were inoculated in the outer well. (A) Images for transmigrated GFP-10T1/2 cells at the back side of the FluoroBlock insert after 16 hours. Images are 865 μm across. (B) Quantification of 10T1/2 cell transwell migration. Data are expressed as percentage relative to the control (HUVEC) migration of the same experimental batch. Medium represents no HUVECs in the outer well. LS294002 10 μM was added. n=4 each. *p<0.05 as compared to the control (HUVEC).\nThe effect of sGC inhibitor was next examined on 10T1/2 cell migration. […] Finally, the effect of PDE5 inhibitors on 10T1/2 cell migration was examined. […] L-NMMA abolished induction of 10T1/2 cell migration induced by Sildenafil. (Mann-Whitney U-test).\nTo elucidate the downstream signaling pathway of NO-dependent perivascular cell recruitment, the effect of PI3K inhibitor […] (10 μM) on the transwell 10T1/2 cell migration toward HUVECs was determined (FIG. 14A-B)."}, "U87 gliomas": {"test_system": "U87 gliomas", "assay": "NO distribution in U87 gliomas by DAF-2T fluorescence (MPLSM)", "format": "in vivo, mice", "settings": "animals treated with L-NMMA compared to D-NMMA", "protocol": "FIGS. 3A-B show microfluorographs depicting NO distribution in U87 gliomas grown in the cranial window in Rag-1^−/−. NO production was visualized by means of DAF-2T fluorescence 0, 20, 40 and 60 min after DAF-2 (0.5 mg/body) injection. Left column, micro-angiography with tetramethylrhodamine-dextran (2000 kDa). Middle column, representative DAF-2T microfluorography captured 60 min after the loading of DAF-2 in tumors. Right column, pseudocolor representation of DAF-2T microfluorographs. […] Bars indicate 100 μm. (A) NO distribution in parental U87MG (top row) or nNOS shRNA58-transfected-U87 (bottom row) tumors. […]\nas §2"}, "nNOS [1]": {"test_system": "nNOS", "assay": "Western blot of nNOS knockdown in cultured nNOS shRNA-transfected U87 cells", "format": "cell-based, human", "protocol": "U87MG (American Type Culture Collection HTB-14) and GL261 (generous gift from Dr. G. Yancey Gillespie at University of Alabama) tumor cells were cultured in Dulbecco's Modified Eagle's Medium with 10% fetal bovine serum at 37° C. in a humidified 5% CO2 incubator. The following short-hairpin RNAs (shRNAs) for nNOS were designed using a commercial service program for small interfering RNA (siRNA) target finder (http://www.ambion.com/techlib/misc/siRNA_finder.html): nNOS-shRNA58, CAAAGAGATCGACACCATC (sense), […] (antisense); nNOSshRNA97, CACGCATGTCTGGAAAGGC (sense), […](antisense); nNOS-shRNA150, GGTCTATCCAATGTCCACA (sense), […] (antisense). The DNA oligonucleotides consist of a 19-nucleotide sense siRNA sequence linked to its reverse complementary antisense siRNA sequence by a short spacer (TTCAAGAGA).\nEach DNA oligonucleotide was prepared with nucleotide overhangs with BamHI and HindIII restriction sites added to the 5′ and 3′ end of the DNA oligonucleotides and subcloned into the pSilencer 3.1 H-1-hygro (Ambion) that allows transcription of the shRNA. These expression vectors were stably transfected into U87MG cells using LipofectAMINE 2000 (Invitrogen) following the manufacturer's instruction.\nThe stably transfected cells were selected with 80 μg/ml of hygromycin B. The expression of nNOS protein in U87 tumor cells and tissues was determined by'Western blot analysis. […]\nEqual amounts of 60 micrograms of protein per sample were separated on 7.5% SDS polyacrylamide gels, transferred onto polyvinylidene fluoride membrane (Millipore), incubated with primary antibodies followed by secondary antibodies (the same antibodies used in immunohistochemistry studies. See Immunohistochemistry methods below), and detected using enhanced chemiluminescence (GE Healthcare) by exposure on autoradiography films (Kodak) (Xu, L., et al. 2005 Cancer Res. 65, 5711-5719; Canneliet, P., et al. 1998 Nature 394, 485-490; Xu, L., et al. 2002 Journal of Biological Chemistry 277, 11368-11374 (2002); and Xu, L., et al. 2004 Clinical Cancer Research 10, 701-707). […]"}, "nNOS [2]": {"test_system": "nNOS", "assay": "Western blot of nNOS knockdown in U87 tumors grown in cranial windows", "format": "in vivo", "settings": "U87 tumors in cranial windows in Rag-1-/- mice", "protocol": "The stably transfected cells were selected with 80 μg/ml of hygromycin B. The expression of nNOS protein in U87 tumor cells and tissues was determined by'Western blot analysis. Cultured U87MG cells washed with PBS and U87MG tumors homogenized by a tissue grinder were solubilized in 40 mM Tris-HCl, pH 6.8, 2% SDS, 10% glycerol, 1% β-mercaptoethanol, 0.01% bromophenol blue with one Complete Mini Protease Inhibitor Cocktail tablet (Roche Diagnostics) per 50 ml buffer.\nEqual amounts of 60 micrograms of protein per sample were separated on 7.5% SDS polyacrylamide gels, transferred onto polyvinylidene fluoride membrane (Millipore), incubated with primary antibodies followed by secondary antibodies (the same antibodies used in immunohistochemistry studies. See Immunohistochemistry methods below), and detected using enhanced chemiluminescence (GE Healthcare) by exposure on autoradiography films (Kodak) (Xu, L., et al. 2005 Cancer Res. 65, 5711-5719; Canneliet, P., et al. 1998 Nature 394, 485-490; Xu, L., et al. 2002 Journal of Biological Chemistry 277, 11368-11374 (2002); and Xu, L., et al. 2004 Clinical Cancer Research 10, 701-707).\nas §1, with “39-44).” for “39-44). All animal procedures were carried oat following the Public Health Service Policy on Humane Care of Laboratory Animals and approved by the Institutional Animal Care and Use Committee of Massachusetts General Hospital.”\nU87 with nNOS shRNA (shRNA58, shRNA97, and shRNA150) were grown in cranial windows in Rag-1^−/− mice. Expression of nNOS in these tumors was determined by Western blot analysis. […]"}},
  "data": [
    {"compound": "CC(=O)O.CNC(=N)NCCC[C@H](N)C(=O)O", "note": "[L-NMMA, NG-Monomethyl-L-arginine monoacetate]", "values": [
      {"measurement": "vessel density", "setting": "U87MG tumors", "value": "decreased"},
      {"measurement": "vessel diameter", "setting": "U87MG tumors", "value": "increased"},
      {"measurement": "induction of 10T1/2 cell migration induced by Sildenafil", "setting": "10T1/2 cells; Sildenafil+L-NMMA", "value": "abolished"},
      {"measurement": "DAF-associated fluorescence (NO production)", "setting": "U87 gliomas", "value": "abolished"}
    ]},
    {"compound": "O=c1cc(N2CCOCC2)oc2c(-c3ccccc3)cccc12", "note": "[LY291002]", "values": [
      {"measurement": "transwell 10T1/2 cell migration toward HUVECs", "setting": "10T1/2 cells; 10 μM, 16 hours", "value": "significantly inhibited"}
    ]},
    {"compound": "O=c1onc2cnc3ccccc3n12", "note": "[ODQ]", "values": [
      {"measurement": "10T1/2 cell migration to HUVECs", "setting": "10T1/2 cells; 10μM", "value": "significantly reduced"}
    ]},
    {"compound": "CCCc1nn(C)c2c(=O)[nH]c(-c3cc(S(=O)(=O)N4CCN(C)CC4)ccc3OCC)nc12", "note": "[Sildenafil]", "values": [
      {"measurement": "10T1/2 cell migration", "setting": "10T1/2 cells; 40 nM", "value": "significantly enhanced"}
    ]},
    {"compound": "shRNA97: short-hairpin RNA for nNOS, CACGCATGTCTGGAAAGGC (sense), GCCTTTCCAGACATGCGTGTT (antisense), in pSilencer 3.1 H-1-hygro", "values": [
      {"measurement": "Knockdown efficiency of nNOS in vitro", "setting": "nNOS [1]", "value": 98, "unit": "%"},
      {"measurement": "Knockdown efficiency of nNOS in vivo", "setting": "nNOS [2]", "value": 67, "unit": "%"}
    ]}
  ]
}
